Drawing on PubChem BioAssay (NCI), this text covers GI50 and TGI for seven compounds.

Values joined by “and” are separate entries in the source; they are usually repeats but may differ in a detail not shown here. Equal values may be shown once.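 1) Cells in 96-well plates. 2) Compound, 48 h, 5 concentrations. 3) Linear interpolation between surrounding doses. 4) Unreached endpoint = highest concentration. Here, GI50 denotes the concentration required for 50% inhibition of growth. The concentration for full growth arrest is given as TGI.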

Assay in all cases: inhibition of tumour cell growth, NCI panel, 48 h
Experiment [1] relates to OVCAR-4 ovarian.
In experiment [2] the test system is SK-OV-3 ovarian.
In experiment [3] the test system is SF-539 CNS.
The subject of experiment [4] is MOLT-4 leukemia.
Experiment [5] has as its system SK-MEL-28 melanoma.
Experiment [6] deals with PC-3 prostate.
The test system of experiment [7] is 786-0 renal.
The test system of experiment [8] is MDA-MB-435.
Experiment [9] deals with A549 NSCLC.
Experiment [10] deals with NCI-H460 lung.

With `COc1ccc(CN2C(=O)/C(=C\C(=O)c3ccc(OCCN4CCCC4)cc3)c3ccccc32)cc1`, the GI50 is 2.18 µM in [1]; 18.6 µM in experiment [2]; 1.82 µM in experiment [3]; 2.91 µM in experiment [4]; 1.79 µM in experiment [5]; 2.35 µM in [6]. Besides, the GI50 in experiment [7] was 1.68 µM; in experiment [8] it was 1.81 µM; in experiment [9], 13.2 µM; in experiment [10] it was 2.03 µM. For the same compound, the TGI was found to be 5.44 µM in [1]; 34 µM in experiment [2]; 3.75 µM in experiment [3]; 7.11 µM in experiment [4]; 3.42 µM in experiment [5]; 4.83 µM in experiment [6]. Besides, the TGI turned out to be 3.19 µM in experiment [7], 3.74 µM in experiment [8], 36.2 µM in experiment [9] and 3.8 µM in experiment [10].
Turning to `O=C(/C=C\c1cc(Br)ccc1O)/C=C/c1cc(Br)ccc1O`, the GI50 was 1.21 µM in experiment [1]; 4.41 µM in experiment [2]; 1.47 µM in experiment [3]; 0.316 µM in experiment [4]; 0.555 µM in experiment [5]; 0.63 µM in [6]. Moreover, the GI50 in experiment [7] is 1.23 µM; in experiment [8], 0.355 µM; in [9], 2.61 µM; in experiment [10], 1.57 µM. For the same compound, the TGI in experiment [1] was 6.87 µM; in [2], 12.3 µM; in [3], 3.35 µM; in experiment [4], 12 µM; in experiment [5] it was 1.96 µM; in experiment [6], 3.08 µM. For the same compound, the TGI in experiment [7] stood at 2.55 µM; in experiment [8], 1.53 µM; in [9], 13.5 µM; in experiment [10], 3.91 µM.
As to `CC(C)n1nc(C#Cc2cccc(O)c2)c2c(N)ncnc21`, the GI50 in experiment [1] is 1.34 µM and 1.74 µM; in experiment [2], 0.978 µM and 1.01 µM; in experiment [3], 0.815 µM and 0.282 µM; in [4] it was 1.2 µM and 0.412 µM; in [5], 0.657 µM and 0.304 µM; in experiment [6], 1.37 µM and 1.18 µM. In addition, the GI50 was 4.7 µM and 3.37 µM in experiment [7]; 0.882 µM and 0.655 µM in experiment [8]; 2.62 µM and 3.17 µM in [9]; 1.34 µM and 1.13 µM in [10]. Besides, the TGI in [1] is 7.4 µM and 6.17 µM; in experiment [2], 3.67 µM; in experiment [3] it was 3.57 µM and 1.65 µM; in experiment [4], 9.4 µM and 4.7 µM; in experiment [5], 2.73 µM and 2.36 µM; in experiment [6], 12.3 µM and 13.9 µM. In addition, the TGI is 15.3 µM and 11.7 µM in [7]; 5.5 µM and 5.03 µM in [8]; 18.3 µM and 14.6 µM in experiment [9]; 9.9 µM and 13.1 µM in experiment [10].
In the case of `CCSc1nc(NC(C)c2ccccc2)c2cnn(CO)c2n1` (stereo not given), the GI50 in [1] is 86.4 µM; in experiment [2], 45.8 µM; in experiment [3] it was 94.4 µM; in experiment [4], over 100 µM; in [5], 87.2 µM; in [6], 38.5 µM. Moreover, the GI50 in [7] is 59.9 µM; in experiment [8] it was 21.1 µM; in [9], over 100 µM; in experiment [10], 32.8 µM. For the same compound, the TGI in [1], in experiment [2], in experiment [3], in experiment [4], in experiment [5] and in experiment [6] was over 100 µM each time. Further, the TGI in experiment [7], in experiment [8], in experiment [9] and in [10] was over 100 µM in each case.
On to `O=C(O)c1ccc(NCc2nc3ccccc3[nH]2)cc1`, for which the GI50 in experiment [1], in experiment [2], in [3], in experiment [4], in experiment [5] and in [6] was over 100 µM each time. In addition, the GI50 in experiment [7], in experiment [8], in experiment [9] and in experiment [10] was over 100 µM throughout. Moreover, the TGI in experiment [1], in experiment [2], in experiment [3], in [4], in experiment [5] and in experiment [6] was over 100 µM each time. Besides, the TGI in [7], in experiment [8], in [9] and in [10] was over 100 µM throughout.
`Cc1ccc(/C=C(/C#N)n2nnc3ncccc32)cc1`: the GI50 in experiment [1] was 2.14 µM; in [2], 3.9 µM; in [3], 2.47 µM; in experiment [4], 3.41 µM; in [5] it was 2.17 µM; in [6], 4.18 µM. Also, the GI50 is 2.99 µM in experiment [7], 0.378 µM in experiment [8], 2.58 µM in experiment [9] and 2.69 µM in [10]. In addition, the TGI was 15.8 µM in [1]; over 100 µM in experiment [2]; 9.61 µM in experiment [3]; 19 µM in experiment [4]; 31.3 µM in [5]; 21.2 µM in experiment [6]. The TGI in experiment [7] was found to be 16.4 µM; in experiment [8], 13.4 µM; in experiment [9], 77.5 µM; in experiment [10], 7.76 µM.
Consider `O=C(/C=C/c1ccco1)Nc1ncc(Cc2cccc(C(F)(F)F)c2)s1`, for which the GI50 in [1] is 0.495 µM; in [2], 0.0626 µM; in experiment [3], 0.0762 µM; in experiment [4] it was 0.084 µM; in experiment [5] it was 1.1 µM; in [6] it was 0.055 µM. The GI50 in experiment [7] was 0.163 µM; in experiment [8] it was 0.0207 µM; in experiment [9], 0.113 µM; in experiment [10], 0.0401 µM. The TGI in experiment [1] was 4.03 µM; in experiment [2] it was 7.45 µM; in experiment [3] it was 0.313 µM; in [4] it was 26 µM; in [5], over 50.2 µM; in experiment [6], over 44.3 µM. The TGI in experiment [7] was 17.8 µM; in experiment [8], 0.0533 µM; in experiment [9] it was over 36.4 µM; in [10] it was 9.59 µM.
